Counter-ions that a name gives are not always drawn.
Tests used:
[1] = test system: platelet aggregation induced by collagen; assay: Ex vivo/vitro anti-platelet-aggregating activity in guinea pigs after gastric administration; design: species or system guinea pig; details: for % of g.r. inhibition guinea pig ex vivo d = 150 mg/kg −1 h: administered 1 h before blood is taken; for % of g.r. inhibition guinea pig ex vivo d = 150 mg/kg −2 h: administered 2 h before blood is taken; for anti-aggregating action ex-vivo in guinea pigs, oral dose 10 mg/kg, 1h: administered 1h before the aggregation test
Procedure: (§1) A study of the inhibitory activity of the compounds of formula I on platelet aggregation was carried out in vitro, i.e. by direct contact of solutions of variable concentrations of the compounds with platelets freshly separated from a sample of whole blood, taken under standardized conditions, from laboratory animals (guinea pigs) and from healthy human subjects who have not received any substances or drugs that might interfere with blood clotting. The anti-platelet-aggregating activity was also studied ex vivo/vitro, i.e. after administration of the substances claimed in guinea pigs to measure the intensity and duration of the anti-aggregating action induced by the fraction of the test product absorbed and circulating in the blood.
2. ex vivo/vitro Pharmacological Study in Guinea Pigs
Evaluation of the anti-platelet-aggregating activity of the compounds is carried out in the same guinea pigs as those mentioned above (Dunkin-Hartley strain). The administration of each product in a range of doses from 150 mg/kg to 10 mg/kg and of each vehicle (5 ml/kg) is carried out via the gastric route (g.r.) 1h or 2h or 4h or 6h or 8h or 12h before blood is taken from the guinea pigs fasted the day before. The allocation of the treatments to the animals is random.
The blood is taken and then treated under the same conditions as those described above for the in vitro studies.
The results of the inhibition of the platelet aggregation obtained for each test concentration make it possible to calculate the IC50 concentration of each test product and the kinetics of the inhibitory effect and its duration of action.

Guinea Pig Platelets = assay: In vitro inhibition of collagen-induced platelet aggregation, guinea pig platelet-rich plasma; format: cell-based; details: guinea pig PRP, collagen 1 μg/ml, 3 minutes of contact at 37° C.
Procedure: as §1
1.1. Studies on Guinea Pig Platelets
Blood is taken by intracardiac puncture from male Dunkin-Hartley guinea pigs (weighing about 330 g), at a rate of 4.5 ml per 0.5 ml of trisodium citrate (concentration of the aqueous solution: 1.55%) in order to prevent all trace of clotting. The platelet-rich plasma (PRP) is obtained by centrifuging the tubes of whole blood for 15 minutes at 150 g.
The PRPs are collected as. “pools”. The platelets contained in these pools are counted using a Coulter ZM haematology automatic device: if necessary, a dilution is carried out in order for the platelet concentration in the plasma to be between 200,000 and 400,000 platelets/mm^3. Simultaneously, other samples of these pools serve to prepare the platelet-poor plasma (PPP) by centrifugation at 1,500 g for 15 minutes.
The kinetic study of the platelet aggregation is carried out by adding a collagen solution (1 μg/ml) to a volume of PRP, using a Chrono-log Corporation aggregometer (490-D1 or 560 VS) which uses an optical detection of the appearance of the thrombus.
The measurements of the aggregation inhibition are carried out after 3 minutes of contact at 37° C. with agitation.

[2] = Cavia porcellus, Platelet, 0.05 h

Compound: CC(=O)O.CCOC(=O)CCNC(=O)CN1CCN(c2ccc(C(=N)N)cc2)CC1=O [Example 16, Ethyl 3-{[2-(4-{4-[amino(imino)methyl]phenyl}-2-oxopiperazino)acetyl]amino}proanoate acetate]
- % of g.r. inhibition guinea pig ex vivo d = 150 mg/kg −1 h [1]: −75%
- % of g.r. inhibition guinea pig ex vivo d = 150 mg/kg −2 h [1]: −73%
- IC50 (Guinea Pig Platelets): 3.8 µM

Compound: CCOC(=O)CC(CCc1ccccc1)NC(=O)CN1CCN(c2ccc(C(=N)N3CCOCC3)cc2)CC1=O (stereo not shown) [Example 33, Ethyl 3-{[2-{4-{4-[imino(morpholino)methyl]phenyl}-2-oxopiperazino)acetyl]amino)-5-phenylpentanoate]
- IC50 (Guinea Pig Platelets; [2]): 0.65 µM

Compound: Ethyl 3-{[2-(4-{4-[amino(hydroxyimino)methyl]phenyl}-2-oxopiperazino)acetyl]amino}-3-(pyridyl)propanoate [Example 5]
- % of g.r. inhibition guinea pig ex vivo d = 150 mg/kg −1 h [1]: −72%
- % of g.r. inhibition guinea pig ex vivo d = 150 mg/kg −2 h [1]: −75%
- IC50 (Guinea Pig Platelets): 100 µM

Compound: CCOC(=O)CC(NC(=O)CN1CCN(c2ccc(C(=N)N)cc2)CC1=O)C1CCCCC1 (stereo not shown) [Example 23, Ethyl 3-{[2-(4-{4-[amino(imino)methyl]phenyl}-2-oxopiperazino)acetyl]amino}-3-cyclohexylpropanoate acetate]
- IC50 (Guinea Pig Platelets; [2]): 46 µM

Compound: CCOC(=O)CC(CCc1ccccc1)NC(=O)CN1CCN(c2ccc(C(N)=NO)cc2)CC1=O (stereo not shown) [Example 7, Ethyl 3-{[2-(4-{4-[amino(hydroxyimino)methyl]phenyl}-2-oxopiperazino)acetyl]amino}-5-phenylpentanoate]
- anti-aggregating action ex-vivo in guinea pigs, oral dose 10 mg/kg, 1h ([1]; 10 mg/kg): 72%

Compound: CCOC(=O)CC(NC(=O)CN1CCN(c2ccc(C(N)=NO)cc2)CC1=O)c1ccc2c(c1)OCO2 (stereo not shown) [Example 3, Ethyl 3-{[2-(4-{4-[amino(hydroxyimino)methyl]phenyl}-2-oxopiperazino)acetyl]amino}-3-(1,3-benzodioxol-5-yl)propanoate]
- anti-aggregating action ex-vivo in guinea pigs, oral dose 10 mg/kg, 1h ([1]; 10 mg/kg): 69%
- anti-aggregating action ex-vivo in guinea pigs, oral dose 10 mg/kg, 2h ([1]; 10 mg/kg, administered 2h before the aggregation test): 72%
- % of g.r. inhibition guinea pig ex vivo d = 150 mg/kg −1 h [1]: −72%
- % of g.r. inhibition guinea pig ex vivo d = 150 mg/kg −2 h [1]: −69%

Compound: CCOC(=O)CC(NC(=O)CN1CCN(c2ccc(C(=N)N)cc2)CC1=O)C(C)(C)C (stereo not shown) [Example 25, Ethyl 3-{[2-(4-{4-[amino(imino)methyl]phenyl}-2-oxopiperazino)acetyl]amino}-4,4-dimethylpentanoate acetate]
- IC50 (Guinea Pig Platelets; [2]): 440 µM

Compound: CCOC(=O)CC(NC(=O)CN1CCN(c2ccc(C(=N)N3CCCCC3)cc2)CC1=O)c1ccc2c(c1)OCO2 (stereo not shown) [Example 34, Ethyl 3-(1,3-benzodioxol-5-yl)-3-{[2-(4-{4-[imino(piperidino)methyl]phenyl}-2-oxopiperazino)-acetyl]amino}propanoate hydrochloride]
- IC50 (Guinea Pig Platelets; [2]): 0.99 µM

Compound: CCOC(=O)CC(NC(=O)CN1CCN(c2ccc(C(=N)N3CCOCC3)cc2)CC1=O)c1ccc2c(c1)OCO2 (stereo not shown) [Example 35, Ethyl 3-(1,3-benzodioxol-5-yl)-3-{[2-(4-{4-[imino-(morpholino)methyl]phenyl}-2-oxopiperazino)acetyl]-amino}propanoate hydrochloride]
- IC50 (Guinea Pig Platelets; [2]): 0.47 µM

Compound: CCOC(=O)CC(CC(C)C)NC(=O)CN1CCN(c2ccc(C(=N)N)cc2)CC1=O (stereo not shown) [Example 24, Ethyl 3-{[2-(4-{4-[amino(imino)methyl]phenyl}-2-oxopiperazino)acetyl]amino}-5-methylhexanoate acetate]
- IC50 (Guinea Pig Platelets; [2]): 4.6 µM

Compound: CCOC(=O)CC(NC(=O)CN1CCN(c2ccc(C(=N)N)cc2)CC1=O)C(C)C (stereo not shown) [Example 26, Ethyl 3-{[2-(4-{4-[amino(imino)methyl]phenyl}-2-oxopiperazino)acetyl]amino}-4-methylpentanoate acetate]
- IC50 (Guinea Pig Platelets; [2]): 4.5 µM

Compound: CCOC(=O)CC(CCc1ccccc1)NC(=O)CN1CCN(c2ccc(C(=N)N3CCCCC3)cc2)CC1=O (stereo not shown) [Example 32, Ethyl 3-{[2-(4-{4-[imino(piperidino)methyl]phenyl}-2-oxopiperazino)acetyl]amino}-5-phenylpentanoate]
- IC50 (Guinea Pig Platelets; [2]): 2.4 µM
